Test results published in PubChem BioAssay AID330 (DTP/NCI, 2004).
Where “and” joins values, the source holds several entries; their conditions need not be identical. Equal values may be shown once. Inconclusive results and toxic doses are left out. The calls were made as follows: active = survival T/C of 150% or more; inactive = T/C below 125% in these data.

Tested on: P388 leukemia ip, CD2F1 mice, survival T/C
Assay: NCI In Vivo Anticancer Drug Screen. Data for tumor model P388 Leukemia (intraperitoneal) in CD2F1 (CDF1) mice
Conditions: endpoint: median survival time, higher = longer survival
How it was run: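 Mice carrying the transplanted tumor received test compound or vehicle. Survival was recorded in each group, and the value is the treated-group measurement divided by that of the vehicle-treated control group.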

[1] = dose: 100.0 mg/kg/injection, schedule: Q01DX009 (ip), vehicle: saline with Tween-80
[2] = dose: 200.0 mg/kg/injection, schedule: Q01DX009 (ip), vehicle: saline with Tween-80
[3] = dose: 400.0 mg/kg/injection, schedule: Q01DX009 (ip), vehicle: saline with Tween-80
[4] = dose: 60.0 mg/kg/injection, schedule: Q01DX005 (ip), vehicle: saline with Tween-80
[5] = dose: 120.0 mg/kg/injection, schedule: Q01DX005 (ip), vehicle: saline with Tween-80
[6] = dose: 240.0 mg/kg/injection, schedule: Q01DX005 (ip), vehicle: saline with Tween-80
[7] = dose: 50.0 mg/kg/injection, schedule: Q01DX005 (ip), vehicle: Klucel (hydroxypropylcellulose) (HPC)
[8] = dose: 100.0 mg/kg/injection, schedule: Q01DX005 (ip), vehicle: Klucel (hydroxypropylcellulose) (HPC)
[9] = dose: 200.0 mg/kg/injection, schedule: Q01DX005 (ip), vehicle: Klucel (hydroxypropylcellulose) (HPC)
[10] = dose: 50.0 mg/kg/injection, schedule: Q01DX005 (ip), vehicle: saline with Tween-80
[11] = dose: 100.0 mg/kg/injection, schedule: Q01DX005 (ip), vehicle: saline with Tween-80
[12] = dose: 200.0 mg/kg/injection, schedule: Q01DX005 (ip), vehicle: saline with Tween-80
[13] = dose: 50.0 mg/kg/injection, schedule: Q01DX009 (ip), vehicle: saline with Tween-80
[14] = dose: 6.25 mg/kg/injection, schedule: Q01DX009 (ip), vehicle: saline with Tween-80
[15] = dose: 12.5 mg/kg/injection, schedule: Q01DX009 (ip), vehicle: saline with Tween-80
[16] = dose: 25.0 mg/kg/injection, schedule: Q01DX009 (ip), vehicle: saline with Tween-80
[17] = dose: 60.0 mg/kg/injection, schedule: Q01DX005 (ip), vehicle: saline
[18] = dose: 120.0 mg/kg/injection, schedule: Q01DX005 (ip), vehicle: saline
[19] = dose: 240.0 mg/kg/injection, schedule: Q01DX005 (ip), vehicle: saline

Measured: T/C

COc1cc2c(c(OC)c1OC)-c1ccc(OC)c(=O)cc1[C@@H](N(C)C(=O)C(F)(F)F)CC2
active: dose: 1.25 mg/kg/injection, schedule: Q01DX009 (ip), vehicle: Klucel (hydroxypropylcellulose) (HPC) 154 % of control and 163 % of control

NC(C=O)C(O)C(O)C(O)CO (configuration not stated)
inactive: [1] 109 % of control | dose: 100.0 mg/kg/injection, schedule: Q04DX003 (ip), vehicle: saline sonified 100 % of control | [2] 95 % of control | dose: 200.0 mg/kg/injection, schedule: Q04DX003 (ip), vehicle: saline sonified 100 % of control | [3] 95 % of control | dose: 400.0 mg/kg/injection, schedule: Q04DX003 (ip), vehicle: saline sonified 90 % of control

Nc1ccc2c(c1)C(=O)N(OS(=O)(=O)c1ccccc1)C2=O
inactive: [4] 106 % of control | [5] 107 % of control | [6] 88 % of control

CC12CCC(Br)C(C)(C)C1CC=C1C(=O)OCC1O2 (configuration not stated)
inactive: dose: 7.5 mg/kg/injection, schedule: Q01DX009 (ip), vehicle: Klucel (hydroxypropylcellulose) (HPC) 101 % of control | dose: 15.0 mg/kg/injection, schedule: Q01DX009 (ip), vehicle: Klucel (hydroxypropylcellulose) (HPC) 105 % of control | dose: 30.0 mg/kg/injection, schedule: Q01DX009 (ip), vehicle: Klucel (hydroxypropylcellulose) (HPC) 111 % of control | dose: 60.0 mg/kg/injection, schedule: Q01DX009 (ip), vehicle: Klucel (hydroxypropylcellulose) (HPC) 111 % of control

O=C1N(c2ccccc2)N=C2CCCCCCCCCCC12O (configuration not stated)
inactive: [7] 93 % of control | [8] 97 % of control | [9] 94 % of control

ClSC(c1ccccc1)(c1ccccc1)c1ccccc1
inactive: [10] 103 % of control | [11] 118 % of control | [12] 94 % of control

CCOC=C1C(=O)N(C)C(=O)N(C)C1=O
inactive: [13] 106 % of control | [1] 106 % of control | [2] 108 % of control

Cc1ccc(S(=O)(=O)NCC(Cl)C#N)cc1 (configuration not stated)
inactive: [7] 105 % of control | [8] 106 % of control | [9] 103 % of control | dose: 400.0 mg/kg/injection, schedule: Q01DX005 (ip), vehicle: Klucel (hydroxypropylcellulose) (HPC) 102 % of control

O=[n+]1c2ccccc2n([O-])c2cn(-c3ccccc3)c(-c3ccccc3)c21
inactive: [10] 100 % of control | [11] 100 % of control | [12] 101 % of control

O=C(CCl)NN=C1C2CC3CC(C2)CC1C3
inactive: [1] 113 % of control

O=C1C(C2CCCCC2)=C2OCC3COC2(O3)c2ccccc21 (configuration not stated)
inactive: [4] 102 % of control | [5] 105 % of control | [6] 102 % of control

S=c1[nH]c2cc(Cl)ccc2o1
inactive: [14] 108 % of control | [15] 96 % of control | [16] 117 % of control | [13] 105 % of control

CCOC1OCCCC1(C)C (configuration not stated)
inactive: [4] 100 % of control | [5] 105 % of control | [6] 112 % of control

CNC(=O)SCCC(=O)OC
inactive: [10] 98 % of control | [11] 100 % of control | [12] 100 % of control

O=c1[nH]cnc2nn(C3OC(CO)C(O)C3O)cc12 (configuration not stated)
inactive: dose: 0.39 mg/kg/injection, schedule: Q01DX009 (ip), vehicle: saline with Tween-80 104 % of control and 117 % of control | dose: 0.78 mg/kg/injection, schedule: Q01DX009 (ip), vehicle: saline with Tween-80 104 % of control and 116 % of control | dose: 1.56 mg/kg/injection, schedule: Q01DX009 (ip), vehicle: saline with Tween-80 107 % of control | dose: 3.12 mg/kg/injection, schedule: Q01DX009 (ip), vehicle: saline with Tween-80 93 % of control | [14] 93 % of control | [15] 101 % of control | [16] 96 % of control | [13] 104 % of control

Cc1cccc(-c2cc3cccnc3nc2NN=O)c1C
inactive: dose: 3.12 mg/kg/injection, schedule: Q01DX009 (ip), vehicle: water 106 % of control | dose: 6.25 mg/kg/injection, schedule: Q01DX009 (ip), vehicle: water 105 % of control and 122 % of control | dose: 12.5 mg/kg/injection, schedule: Q01DX009 (ip), vehicle: water 111 % of control | dose: 50.0 mg/kg/injection, schedule: Q01DX009 (ip), vehicle: water 106 % of control and 121 % of control | dose: 100.0 mg/kg/injection, schedule: Q01DX009 (ip), vehicle: water 93 % of control

COC(=O)c1cc(-c2ccc(N)cc2)n2c(N)nnc2n1
inactive: [4] 107 % of control | [5] 91 % of control | [6] 98 % of control

O=C(c1ccccc1)C(Cl)C(Cl)c1ccccc1 (configuration not stated)
inactive: dose: 25.0 mg/kg/injection, schedule: Q01DX005 (ip), vehicle: saline with Tween-80 102 % of control | [10] 105 % of control | [11] 101 % of control | [12] 100 % of control

CCCN1COC(OCC)C(C)(C)C1 (configuration not stated)
inactive: [16] 110 % of control | [2] 93 % of control

Cn1c([N+](=O)[O-])cnc1N1CCN(c2nncs2)C1=O
inactive: [17] 100 % of control | [18] 101 % of control | [19] 100 % of control

O=C1C(c2ccccn2)=C(O)c2ccccc21
inactive: [7] 104 % of control | [8] 93 % of control | [9] 97 % of control

O=C1N(Br)C(=O)C(c2ccc(Cl)cc2)(c2ccc(Cl)cc2)N1Br
inactive: dose: 11.0 mg/kg/injection, schedule: Q01DX009 (ip), vehicle: saline with Tween-80 122 % of control
active: dose: 150.0 mg/kg/injection, schedule: Q01DX009 (ip), vehicle: saline with Tween-80 154 % of control

Cc1cc(C=C2C(=O)c3ccccc3C2=O)cc(C)c1O
inactive: dose: 100.0 mg/kg/injection, schedule: Q04DX002 (ip), vehicle: saline 97 % of control | dose: 200.0 mg/kg/injection, schedule: Q04DX002 (ip), vehicle: saline 101 % of control | dose: 400.0 mg/kg/injection, schedule: Q04DX002 (ip), vehicle: saline 93 % of control

C/C(=C\C(=O)O)Cc1ccccc1 (tested in a mixture with another compound)
inactive: dose: 100.0 mg/kg/injection, schedule: Q04DX003 (ip), vehicle: other 108 % of control | dose: 200.0 mg/kg/injection, schedule: Q04DX003 (ip), vehicle: other 100 % of control | dose: 400.0 mg/kg/injection, schedule: Q04DX003 (ip), vehicle: other 108 % of control

CCOP(=S)(OCC)Oc1ccc([N+](=O)[O-])cc1
inactive: dose: 0.06 mg/kg/injection, schedule: Q01DX009 (ip), vehicle: saline 102 % of control | dose: 0.12 mg/kg/injection, schedule: Q01DX009 (ip), vehicle: saline 106 % of control | dose: 0.25 mg/kg/injection, schedule: Q01DX009 (ip), vehicle: saline 107 % of control | dose: 0.5 mg/kg/injection, schedule: Q01DX009 (ip), vehicle: saline 100 % of control

Cc1ccccc1NC(=O)c1ccc([N+](=O)[O-])cc1
inactive: [1] 100 % of control | [2] 104 % of control | [3] 90 % of control

C/C=C1/CN2CCC34c5ccccc5N(C)C23C2CC1C4(C(=O)OC)C(O)O2 (configuration not stated)
inactive: dose: 9.25 mg/kg/injection, schedule: Q01DX005 (ip), vehicle: saline + Tween-80 + alcohol 114 % of control | dose: 18.5 mg/kg/injection, schedule: Q01DX005 (ip), vehicle: saline + Tween-80 + alcohol 93 % of control | dose: 37.0 mg/kg/injection, schedule: Q01DX005 (ip), vehicle: saline + Tween-80 + alcohol 100 % of control | dose: 74.0 mg/kg/injection, schedule: Q01DX005 (ip), vehicle: saline + Tween-80 + alcohol 100 % of control

COC(=O)NC1=Nc2ccccc2N(C(=O)Oc2ccccc2)S1
inactive: dose: 50.0 mg/kg/injection, schedule: Q01DX005 (ip), vehicle: acetone 100 % of control | dose: 100.0 mg/kg/injection, schedule: Q01DX005 (ip), vehicle: acetone 100 % of control | dose: 200.0 mg/kg/injection, schedule: Q01DX005 (ip), vehicle: acetone 107 % of control

CCCC[S][Sn]([CH2]CCC)([CH2]CCC)[S]CCCC
inactive: dose: 0.75 mg/kg/injection, schedule: Q01DX009 (ip), vehicle: saline with Tween-80 121 % of control
active: dose: 3.0 mg/kg/injection, schedule: Q01DX009 (ip), vehicle: saline with Tween-80 152 % of control

C1Cc2[nH]nc(-c3n[nH]c4c3CCC4)c2C1
inactive: [17] 97 % of control | [18] 97 % of control | [19] 97 % of control
